Counter-ions that a name gives are not always drawn.

The species entered for the assay is Rattus norvegicus. Kind of assay: Vasorelaxant activity expressed as negative logarithm of the concentration causing a 50% inhibition of spontaneous myogenic activity in rat portal vein. Format: functional.
Compound `C[C@@H](N/C(=C\[N+](=O)[O-])Nc1cccnc1)C(C)(C)C` gave a pD2 of 6.
Compound `CC1(C)C=C(n2ccccc2=O)c2cc(C#N)ccc2O1` [BIMAKALIM] had a pD2 of 8.2.
Compound `CC1(C)Oc2ccc(C#N)cc2[C@H](OC2=CC(=O)CC2)[C@H]1O` displayed a pD2 of 5.26.
The result for `C[C@H](N/C(=C\[N+](=O)[O-])Nc1cccnc1)C(C)(C)C` reads 7.96; that for `CCC(C)(C)/N=C(\NC#N)Nc1cccnc1`, 8.75; that for `CC(N/C(=N\C#N)Nc1ccncc1)C(C)(C)C` (stereo in doubt; 11) [PINACIDIL ANHYDROUS], 7.47.
Compound `CC1(C)Oc2ccc(C#N)cc2[C@@H](OC2=CC(=O)CC2)[C@@H]1O` gave a pD2 of 7.85.
In the case of `CC1(C)Oc2ccc(C#N)cc2C(N2CCCC2=O)C1O` (configuration not stated) [CROMAKALIM], the pD2 is 5.66.
In turn, `CC1=Nc2ccc(Cl)cc2S(=O)(=O)N1` [DIAZOXIDE] returned a pD2 of 5.5.
Take `Nc1cc(N2CCCCC2)nc(N)[n+]1OS(=O)(=O)[O-]` [MINOXIDIL SULFATE]: the pD2 stood at 7.14.
The result for `CC1(C)Oc2ccc(C#N)cc2[C@@H](N2CCCC2=O)[C@@H]1O` [LEVCROMAKALIM] reads 7.89.
Compound `CC(N/C(=N\C#N)Nc1ccncc1)C(C)(C)C` (stereo in doubt; 12) [PINACIDIL ANHYDROUS] returned a pD2 of 6.11.

Values taken from ChEMBL document CHEMBL1126732, “Synthesis of and radioligand binding studies with a tritiated pinacidil analogue: receptor interactions of structurally different classes of potassium channel openers and blockers” (J Med Chem, 1993).
